The test system of series [1] is 142 cells, HFF1 cells, 143 carcinoma cells, HOS sarcoma cell line (FIG. 5). The series can be described thus: LIVE/DEAD kit, fluorescence microscopy of monolayers (FIG. 5, text). To be noted: 10 μg/ml of peptide. It is filed as cell-based. From the text: The LIVE/DEAD® Viability/Cytotoxicity kit employs a fluorescent dye to assess mammalian cell viability. Calcein AM and ethidium homodimer-1 (EthD-1) are found to be optimal dyes for this purpose. […] cells are distinguished from dead cells by the presence of intracellular esterase activity, determined by enzymatic conversion of non-fluorescen calcein AM to intensely fluorescent calcein. Calcein, which is a polyanionic dye, is well retained inside living cells producing an intense uniform green fluorescence. EthD-1 is excluded by intact membranes of viable cells, but it will enter cells with damaged cell membrane and bind to nucleic acids, producing a bright red fluorescence in dead cells. The protocol for using the live/dead kit is supplied by the manufacturer.
To quantify the cytotoxic action of Peptide 1, 20 000 cells were placed in 24 well multiwell dishes. […] After 1-3-6 hrs the cellular viability was assessed using the Molecular Probes LIVE/DEAD kit. […]
The cells were then observed using an inverted fluorescence microscope (Nikon Eclipse 2000E, Tokyo, Japan) equipped with FITC (green fluorescence) and TRITC (red fluorescence) filter optics. […] The proportion of viable cells (cells with green fluorescence) and the proportion of dead cells (red fluorescence) where then assessed by counting 100 cells. […]

Series [2] has as its system normal human forskin fibroblasts (HFF1). To be noted: 20 μg/ml, exposure for 90 minutes.
Experimental: MTT is a yellowish solution and is converted to water-insoluble MTT-formazan of dark blue colour by mitochondrial dehydrogenases of living cells. The blue crystals are solubilized with acidifies isopropanol and the intensity is measured colorimetrically at a wavelength of 570 nm (protocol for the MTT assay was used according to the manufacturer's instructions). Using a MTT cell viability assay, a comparison was made between normal human forskin fibroblasts (HFF1) and three cancer cell lines T986 (neuroblastoma cells), GaMG (glioblastoma), and A172 (glioblastoma).

In the case of “Ac-YGRKKRRQRRRGKTLRVAKAIYKRYIE-NH2 [Peptide 1]”, the “cytotoxic action (red cells)” value in series [1] was “slight cytotoxic action”. In series [2], this substance yielded a surviving fraction of 58%.

(Values after patent US9353156B2, “Oligopeptide compounds and uses thereof” (Cytovation AS, priority 2010, dated 2016).)
